In series [1] the test system is Cotton Aphid (Aphis gossypii). The experiment in a line: Insecticidal test for cotton aphid in a foliar spray assay. Format: in vivo. The note with it: 72 h, 200 ppm foliar spray on squash or cotton seedlings, live aphids counted after three days, Abbott's corrected % control, read-out: APHIGO % Ctrl @ 200 ppm. The procedure:
Squash or cotton seedlings with fully expanded cotyledon leaves were trimmed to one cotyledon per plant and infested with wingless adult and nymph stage cotton aphid (APHIGO) one day prior to chemical application. Each plant was examined before chemical application to ensure uniform infestation (ca. 30-70 aphids per plant). Compounds (2 mg) were dissolved in 2 mL of acetone/methanol (1:1) solvent, forming stock solutions of 1000 ppm. The stock solutions were diluted 5× with 0.025% Tween 20 in H2O to obtain a solution at 200 ppm. A hand-held Devilbiss aspirator type sprayer was used to apply the spray solutions until runoff to both sides of the squash cotyledon leaves. Four plants (4 replications) were used for each concentration of each compound. Reference plants (solvent check) were sprayed with the diluent only. Treated plants were held in a holding room for three days at approximately 25° C. and 40% RH before the number of live cotton aphids on each plant was recorded. Insecticidal activity data presented in Table 3 were generated by using Abbott's correction formula: Corrected%Control=100*(X−Y)/X • where X=No. of live aphids on solvent check plants • Y=No. of live aphids on treated plants

The subject of series [2] is Green Peach Aphid (Myzus persicae). Briefly: Insecticidal test for green peach aphid in foliar spray assay. Format: in vivo. As to conditions: 72 h, 200 ppm foliar spray on cabbage seedlings, live aphids counted after three days, Abbott's corrected % control, read-out: MYZUPE % Ctrl @ 200 ppm. The procedure:
Certain molecules disclosed in this document were tested against MYZUPE using procedures described in the following example. In the reporting of the results, the “MYZUPE, APHIGO and BEMITA Rating Table” was used (See Table Section).
Cabbage seedlings grown in 3-inch pots, with 2-3 small (3-5 cm) true leaves, were used as test substrate. The seedlings were infested with 20-50 green peach aphids (wingless adult and nymph stage) one day prior to chemical application. Four pots with individual seedlings were used for each treatment. Compounds (2 mg) were dissolved in 2 mL of acetone/methanol (1:1) solvent, forming stock solutions of 1000 ppm. The stock solutions were diluted 5× with 0.025% Tween 20 in H2O to obtain the test solution at 200 ppm. A hand-held Devilbiss sprayer was used for spraying a solution to both sides of cabbage leaves until runoff. Reference plants (solvent check) were sprayed with the diluent only. Treated plants were held in a holding room for three days at approximately 25° C. and 40% relative humidity (RH) prior to grading. Evaluation was conducted by counting the number of live aphids per plant under a microscope. Insecticidal activity data presented in Table 3 were generated by using Abbott's correction formula: Corrected%Control=100*(X−Y)/X • where X=No. of live aphids on solvent check plants • Y=No. of live aphids on treated plants

Series [3] has as its system Sweetpotato Whitefly (Bemisia tabaci). The experiment in a line: Insecticidal test for sweetpotato whitefly in foliar spray assay. In kind it is in vivo. As to conditions: 200 ppm foliar spray on cotton plants infested with eggs, live nymphs counted after 8-9 days, Abbott's corrected % control, read-out: BEMITA % Ctrl @ 200 ppm. The procedure: Cotton plants were used as test substrate and were grown in 3-inch pots and pruned until only 1 small (3-5 cm) true leaf remained. The plants were then placed in a room with whitefly ([…]) adults and allowed to be infested with eggs. After a 2-3 day egg-laying period, plants were taken from the adult whitefly room and the adults were removed from the leaves using compressed air delivered through a hand-held Devilbiss sprayer (23 psi). Plants infested with eggs (100-300 eggs per plant) were placed in a controlled-environment room for 5-6 days at 82° F. and 50% RH until approximately 50% egg hatch. Four cotton plants (4 replicates) were used for each treatment. Compounds (2 mg) were dissolved in 1 mL of acetone solvent, forming stock solutions of 2000 ppm. The stock solutions were diluted 10× with 0.025% Tween 20 in H2O to obtain the test solution of 200 ppm. A hand-held Devilbiss sprayer was used for spraying a solution to both sides of cotton leaf until runoff. Reference plants (solvent check) were sprayed with the diluent only. Treated plants were held in a holding room for 8-9 days at approximately 82° F. and 50% RH prior to grading. Evaluation was conducted by counting the number of live nymphs per plant under a microscope. Insecticidal activity data presented in Table 3 were generated by using Abbott's correction formula: Corrected%Control=100*(X-Y)/X • where X=No. of live nymphs on solvent check plants • Y=No. of live nymphs on treated plants […]

`CN(C(=O)C(C)(C)C[S+](C)[O-])c1nnc(-c2cccnc2)s1` (stereo not shown) [Compound 32]: the inhibition at 200 ppm in series [1], in series [2] and in series [3] was 80 to 100% each time.

As for `CCSCC(C)(C)C(=O)N(C)c1nnc(-c2cccnc2)s1` [Compound 17], the inhibition at 200 ppm in series [1] was in the range of 80 to 100%; in series [2], 80 to 100%; in series [3], 0 to 80%.

Turning to `CSCCN(C)C(=O)N(C)c1nnc(-c2cncc(F)c2)s1` [Compound 83, 1-[5-(5-fluoro-pyridin-3-yl)-[1,3,4]thiadiazol-2-yl]-1,3-dimethyl-3-(2-methylsulfanyl-ethyl)-urea], the inhibition at 200 ppm in series [2] was in the range of 80 to 100%; in series [3], 0 to 80%.

Take `CN(C(=O)C(C)(C)CS(C)(=O)=O)c1nnc(-c2cccnc2)s1` [Compound 33]: the inhibition at 200 ppm in series [1] was 80 to 100%; in series [2], 80 to 100%; in series [3], 0 to 80%.

`CCOC(=S)N(C)c1nnc(-c2cncc(F)c2)s1` [Compound 80, [5-(5-fluoro-pyridin-3-yl)-[1,3,4]thiadiazol-2-yl]-methyl-thiocarbamic acid ethyl ester] showed a melting point of 137 to 140 °C. For the same molecule, the inhibition at 200 ppm in series [2] was in the range of 80 to 100%. Moreover, in series [3], the inhibition at 200 ppm is 0 to 80%.

Molecule `CN(C(=O)CSCc1ccccc1)c1nnc(-c2cncc(F)c2)s1` [Compound 84] came in with a melting point of 145 to 147 °C. In addition, the inhibition at 200 ppm in series [2] is 0 to 80%. Besides, the inhibition at 200 ppm in series [3] lay within 0 to 80%.

With `CCSC(C)CC(=O)N(C)c1nnc(-c2cccnc2)s1` (stereo not shown) [Compound 13], the inhibition at 200 ppm was in the range of 80 to 100% in series [1], 80 to 100% in series [2] and 0 to 80% in series [3].

For `CSCC(C)(C#N)C(=O)N(C)c1nnc(-c2cncc(F)c2)s1` (stereo not shown) [Compound 88], the melting point is 109 to 111 °C. Further, in series [2], the inhibition at 200 ppm is 80 to 100%. The inhibition at 200 ppm in series [3] is 0 to 80%.

For `CSCCNC(=S)N(C)c1nnc(-c2cncc(F)c2)s1` [Compound 86, 1-[5-(5-fluoro-pyridin-3-yl)-[1,3,4]thiadiazol-2-yl]-1-methyl-3-(2-methylsulfanyl-ethyl)-thiourea], the inhibition at 200 ppm in series [2] and in series [3] was 80 to 100% in each case.

With `CN(C(=O)C(C)(C)CS(C)(=O)=NC#N)c1nnc(-c2cccnc2)s1` (stereo not shown) [Compound 42, N-2,2-trimethyl-3-(methyl-N-cyano-sulfoximinyl)-N-(5-(pyridin-3-yl)-1,3,4-thiadiazol-2-yl)propanamide], the values for the inhibition at 200 ppm in series [1], in series [2] and in series [3] were 0 to 80%, 80 to 100% and 0 to 80%, respectively.

`CSCCOC(=S)N(C)c1nnc(-c2cncc(F)c2)s1` [Compound 85, [5-(5-fluoro-pyridin-3-yl)-[1,3,4]thiadiazol-2-yl]-methyl-thiocarbamic acid 2-methylsulfanyl-ethyl ester]: the melting point fell in the range of 150 to 152 °C. Besides, the inhibition at 200 ppm in series [2] was in the range of 0 to 80%. In series [3], the inhibition at 200 ppm lay in the range of 0 to 80%.

`CSCC(C)C(=O)Nc1nnc(-c2cccnc2)s1` (stereo not shown) [Compound 92] showed a melting point of 176 °C. Also, in series [2], the inhibition at 200 ppm fell in the range of 0 to 80%. Further, the inhibition at 200 ppm in series [3] lay in the range of 0 to 80%.

As for `CSCC(C)(C)C(=O)OCC(C)(C)C(=O)N(C)c1nnc(-c2cncc(F)c2)s1` [Compound 91], the melting point fell in the range of 90 to 93 °C. Moreover, in series [2], the inhibition at 200 ppm lay in the range of 80 to 100%. The inhibition at 200 ppm in series [3] was 80 to 100%.

For `CCOC(=O)N(C)c1nnc(-c2cccnc2)s1` [Compound 15], the melting point was 162 to 164 °C. The inhibition at 200 ppm in series [1] fell in the range of 0 to 80%. In addition, the inhibition at 200 ppm in series [2] was below 0%.

`CSCC(C)(C)C(=O)Nc1nnc(-c2cccnc2)s1` [Compound 35] gave a melting point of 182 to 188 °C. Besides, the inhibition at 200 ppm in series [1] is 80 to 100%. Further, the inhibition at 200 ppm in series [2] was in the range of 0 to 80%.

For `CN(C(=O)CCS(=O)(=O)Cc1ccccc1)c1nnc(-c2cccnc2)s1` [Compound 40], the melting point fell in the range of 198 to 201 °C. Also, the inhibition at 200 ppm in series [1] is below 0%. Further, the inhibition at 200 ppm in series [2] is below 0%.

With `CSCC(C)C(=O)N(C)c1nnc(-c2cccnc2)s1` (stereo not shown) [Compound 28, N-2-Dimethyl-3-(methylthio)-N-(5-(pyridin-3-yl)-1,3,4-thiadiazol-2-yl)propanamide], the inhibition at 200 ppm in series [1] lay in the range of 80 to 100%; in series [2] it was 80 to 100%; in series [3] it was 0 to 80%.

Molecule `COCCNC(=S)N(C)c1nnc(-c2cccnc2)s1` [Compound 95] had a melting point of 118 to 121 °C. Moreover, in series [2], the inhibition at 200 ppm was in the range of 80 to 100%. Moreover, the inhibition at 200 ppm in series [3] was 0 to 80%.

For the molecule `CSCCC(=O)N(CC1CC1)c1nnc(-c2cccnc2)s1` [Compound 98], the inhibition at 200 ppm in series [2] is 80 to 100%; in series [3], below 0%.

Consider `CC(CS(C)(=O)=O)C(=O)N(C)c1nnc(-c2cccnc2)s1` (stereo not shown) [Compound 37], for which the values for the inhibition at 200 ppm in series [1], in series [2] and in series [3] were 80 to 100%, 80 to 100% and 0 to 80%, respectively.

Consider `CC(=O)SCCC(=O)N(C)c1nnc(-c2cccnc2)s1` [Compound 26, S-3-(methyl(5-(pyridin-3-yl)-1,3,4-thiadiazol-2-yl)-amino)-3-oxopropyl ethanethioate], for which the melting point was in the range of 133 to 135 °C. In series [1], the inhibition at 200 ppm fell in the range of 0 to 80%. The inhibition at 200 ppm in series [2] was in the range of 0 to 80%.

For the molecule `CSC(=O)N(C)c1nnc(-c2cccnc2)s1` [Compound 55, S-methyl methyl(5-(pyridin-3-yl)-1,3,4-thiadiazol-2-yl)carbamothioate], the melting point lay within 192 to 194 °C. Moreover, in series [1], the inhibition at 200 ppm is 0 to 80%. In addition, the inhibition at 200 ppm in series [2] is below 0%.

`CCOC(=O)Nc1nnc(-c2cccnc2)s1` [Compound 14] registered a melting point of 127 to 132 °C. Also, in series [1], the inhibition at 200 ppm was 0 to 80%. Moreover, in series [2], the inhibition at 200 ppm was below 0%.

Molecule `CN(C(=O)OCCS(C)(=O)=O)c1nnc(-c2cccnc2)s1` [Compound 52] had a melting point of 198 to 200 °C. Also, in series [1], the inhibition at 200 ppm was 0 to 80%. Moreover, the inhibition at 200 ppm in series [2] fell in the range of 0 to 80%.

Turning to `CCC(CC)(CSC)C(=O)N(C)c1nnc(-c2cccnc2)s1` [Compound 53], the inhibition at 200 ppm in series [1] was in the range of 80 to 100%; in series [2] it was 0 to 80%; in series [3], 0 to 80%.

With `CN(C(=O)CCN)c1nnc(-c2cccnc2)s1` [Compound 41, 3-amino-N-methyl-N-(5-(pyridin-3-yl)-1,3,4-thiadiazol-2-yl)propanamide], the melting point fell in the range of 110 to 112 °C. Moreover, the inhibition at 200 ppm in series [1] lay within 80 to 100%. For the same molecule, the inhibition at 200 ppm in series [2] lay in the range of 0 to 80%.

Take `CCOC(=O)N(C)c1nnc(-c2cncc(F)c2)s1` [Compound 87]: the inhibition at 200 ppm in series [3] was 80 to 100%.

In turn, `COC(=O)CCC(=O)N(c1ccccc1)c1nnc(-c2cccnc2)s1` [Compound 59] registered a melting point of 152 to 155 °C. The inhibition at 200 ppm in series [1] was 0 to 80%. Besides, the inhibition at 200 ppm in series [2] was below 0%.

As usually defined, the melting point is the temperature, or range, at which the solid turns liquid.

The record behind these values is US8912338B2, “Pesticidal compositions” (Dow AgroSciences LLC, priority 2010, dated 2014).
